According to patent publication US11279712B2, “Macrocyclic compounds that inhibit MCL-1 protein” (AMGEN INC., priority 2017, dated 2022):
Where two headings read alike, the source gives them in different places.

Legend:
[1] = tested on: OPM-2 human multiple myeloma cell line; test: Cell Viability Assay (OPM-2 10 FBS); assay type: cell-based; details: OPM-2 cells, CellTiter-Glo, read-out: OPM-2 10% FBS IC50 IP
Procedure: Cell Viability Assay (OPM-2 10 FBS)
The human multiple myeloma cell line, OPM-2, was cultured in complete growth medium containing RPMI 1640 and 10% fetal bovine serum (FBS). Cells were seeded into 384-well plates at 3000 cells/well density in complete growth medium containing 10% FBS, and incubated for 16 h with serially diluted test compounds in a 37° C. incubator with 5% CO2. Cell viability was tested using CellTiter-Glo® assay (Promega, Madison, Wis.) according to the manufacturer recommendations. Luminescence was determined using an EnVision® Multilabel plate reader 25 min after the addition of detection reagent. IC50 values were then calculated with Xlfit using a logistical 4-parameter fit model in GraphPad Prism (GraphPad Software, San Diego, Calif.) or in Genedata Screener® (Genedata, Basel, Switzerland).

[2] = molecular target: Mcl-1/Bim interaction (recombinant human Mcl-1 residues 171-327) (Homo sapiens (Human), UniProt Q07820); test: Cell Free Mcl-1:Bim Affinity Assay (Mcl-1 HTRF); assay type: binding; details: TR-FRET, 0.1 nM Mcl-1(171-327), 0.05 nM biotin-Bim(51-76)
Procedure: Cell Free Mcl-1:Bim Affinity Assay (Mcl-1 HTRF)
The inhibition of the Mcl-1/Bim interaction was measured using a time-resolved fluorescence resonance energy transfer (TR-FRET) assay. The recombinant human Mcl-1 (C-terminally 6×His tagged Mcl-1 containing residues 171-327) was generated at Amgen Inc (Thousand Oaks, Calif.). A biotinylated peptide derived from human Bim (residues 51-76) was purchased from CPC Scientific (San Jose, Calif.). The TR-FRET assay was conducted in a 384-well white OptiPlate™ (PerkinElmer, Waltham, Mass.) in a total volume of 40 μL. The reaction mixture contained 0.1 nM Mcl-1(171-327), 0.05 nM biotin-Bim(51-76), 0.05 nM LANCES Eu-W1024 Anti-6×His (PerkinElmer), 0.072 nM Streptavidin-Xlent (Cisbio, Bedford, Mass.), and serially diluted test compounds in the binding buffer of 20 mM Hepes, pH 7.5, 150 mM NaCl, 0.016 mM Brij®35, and 1 mM dithiothreitol. Test compounds were pre-incubated with Mcl-1(171-327) and biotin-Bim (51-76) for 60 min before addition of the detection mixture (LANCE® Eu-W1024 Anti-6×His and Streptavidin-Xlent). The reaction plates were further incubated overnight and then were read on an Envision® multimode reader (PerkinElmer). Fluorescence signals were measured at 620 nm (40-nm bandwidth) and 665 nm (7.5-nm bandwidth) with a 60 μs delay after excitation at 320 nm (75-nm bandwidth). The signal ratio at 665/620 nm corresponded to the Mcl-1/Bim interaction and was used in all data analyses. The IC50 values of test compounds were determined from duplicate data by analyzing competition curves using a four-parameter sigmoidal model in GraphPad Prism (GraphPad Software, San Diego, Calif.) or in Genedata Screener® (Genedata, Basel, Switzerland).

Sequence of Mcl-1/Bim interaction (recombinant human Mcl-1 residues 171-327) (Q07820 171-327): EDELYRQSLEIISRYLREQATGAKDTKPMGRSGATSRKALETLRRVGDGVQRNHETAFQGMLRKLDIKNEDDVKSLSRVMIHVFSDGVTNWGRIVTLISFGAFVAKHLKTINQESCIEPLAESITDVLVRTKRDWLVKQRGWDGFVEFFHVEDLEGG

Molecule `C[C@@H]1[C@@H](C)CCC[C@H](CS(C)(=O)=O)[C@@H]2CC[C@H]2CN2C[C@@]3(CCCc4cc(Cl)ccc43)COc3ccc(cc32)C(=O)NS1(=O)=O` (single isomer, unassigned) [Example 41] has an IC50 ([1]; 16 h) of 567 nM and an IC50 [2] of 0.284 nM.

For `C[C@@H]1[C@@H](C)CCC[C@@H](CS(C)(=O)=O)[C@@H]2CC[C@H]2CN2C[C@@]3(CCCc4cc(Cl)ccc43)COc3ccc(cc32)C(=O)NS1(=O)=O` (single isomer, unassigned) [Example 44], the IC50 ([1]; 16 h) was 617 nM and the IC50 [2] was 0.502 nM.

`C[C@@H]1[C@@H](C)CCC[C@H](CN2CCN3CCOC[C@@H]3C2)[C@@H]2CC[C@H]2CN2C[C@@]3(CCCc4cc(Cl)ccc43)COc3ccc(cc32)C(=O)NS1(=O)=O` (single isomer, unassigned) [Example 10] showed an IC50 ([1]; Homo sapiens, OPM-2, 16 h) of 227 nM and an IC50 [2] of 0.291 nM.

For `C[C@@H]1[C@@H](C)CCC[C@H](CN2CCN3CCOC[C@H]3C2)[C@@H]2CC[C@H]2CN2C[C@@]3(CCCc4cc(Cl)ccc43)COc3ccc(cc32)C(=O)NS1(=O)=O` (stereo in doubt) [Example 14], the IC50 ([1]; Homo sapiens, OPM-2, 16 h) was 268 nM and the IC50 [2] was 0.291 nM.

For `COCCN1CCCN(C[C@H]2CCC[C@H](C)[C@@H](C)S(=O)(=O)NC(=O)c3ccc4c(c3)N(C[C@@H]3CC[C@@H]23)C[C@@]2(CCCc3cc(Cl)ccc32)CO4)CC1=O` (stereo in doubt) [Example 42], the IC50 ([1]; Homo sapiens, OPM-2, 16 h) was 593 nM and the IC50 [2] was 0.408 nM.

With `COCCNC(=O)[C@H]1CCC[C@H](C)[C@@H](C)S(=O)(=O)NC(=O)c2ccc3c(c2)N(C[C@@H]2CC[C@H]21)C[C@@]1(CCCc2cc(Cl)ccc21)CO3` (single isomer, unassigned) [Example 11] the IC50 ([1]; Homo sapiens, OPM-2, 16 h) was 242 nM and the IC50 [2] was 0.237 nM.

Molecule `C[C@@H]1[C@@H](C)C/C=C/[C@H](CO)[C@@H]2CC[C@H]2CN2C[C@@]3(CCCc4cc(Cl)ccc43)COc3ccc(cc32)C(=O)NS1(=O)=O` (single isomer, unassigned) [Example 24] has an IC50 ([1]; 16 h) of 322 nM and an IC50 [2] of 0.224 nM.

For `C[C@@H]1[C@@H](C)CCC[C@H](CO)[C@@H]2CC[C@H]2CN2C[C@@]3(CCCc4cc(Cl)ccc43)COc3ccc(cc32)C(=O)NS1(=O)=O` (single isomer, unassigned) [Example 63], the IC50 ([1]; 16 h) was 1460 nM and the IC50 [2] was 0.997 nM.

`COCCN1CCN(C[C@H]2CCC[C@H](C)[C@@H](C)S(=O)(=O)NC(=O)c3ccc4c(c3)N(C[C@@H]3CC[C@@H]23)C[C@@]2(CCCc3cc(Cl)ccc32)CO4)CC1` (single isomer, unassigned) [Example 12] showed an IC50 ([1]; 16 h) of 254 nM and an IC50 [2] of 0.542 nM.

In the case of `C[C@@H]1[C@@H](C)CCC[C@H](CN2CCN(C)CC2)[C@@H]2CC[C@H]2CN2C[C@@]3(CCCc4cc(Cl)ccc43)COc3ccc(cc32)C(=O)NS1(=O)=O` (single isomer, unassigned) [Example 5], the IC50 ([1]; 16 h) is reported as 173 nM and the IC50 [2] is reported as 0.622 nM.

Work on `CC[C@@H]1CCCC[C@H](CO)[C@@H]2CC[C@H]2CN2C[C@@]3(CCCc4cc(Cl)ccc43)COc3ccc(cc32)C(=O)NS1(=O)=O` (single isomer, unassigned) [Example 71] yielded an IC50 ([1]; 16 h) of 1950 nM and an IC50 [2] of 0.359 nM.

Work on `C[C@H]([C@H]1CCC[C@H](C)[C@@H](C)S(=O)(=O)NC(=O)c2ccc3c(c2)N(C[C@@H]2CC[C@H]21)C[C@@]1(CCCc2cc(Cl)ccc21)CO3)N1CCOCC1` (single isomer, unassigned) [Example 72] yielded an IC50 ([1]; 16 h) of 1990 nM and an IC50 [2] of 0.849 nM.

`CC(=O)N1CCN2CCN(C[C@H]3CCC[C@H](C)[C@@H](C)S(=O)(=O)NC(=O)c4ccc5c(c4)N(C[C@@H]4CC[C@@H]34)C[C@@]3(CCCc4cc(Cl)ccc43)CO5)C[C@H]2C1` (stereo in doubt) [Example 25] was tested, and the IC50 ([1]; 16 h) was 329 nM and the IC50 [2] was 0.252 nM.

`C[C@@H]1[C@@H](C)CCC[C@H](CN2CC(C)(N(C)C)C2)[C@@H]2CC[C@H]2CN2C[C@@]3(CCCc4cc(Cl)ccc43)COc3ccc(cc32)C(=O)NS1(=O)=O` (single isomer, unassigned) [Example 17] showed an IC50 ([1]; Homo sapiens, OPM-2, 16 h) of 284 nM and an IC50 [2] of 0.881 nM.

`C[C@@H]1[C@@H](C)CCC[C@H](C(=O)N2CCC2)[C@@H]2CC[C@H]2CN2C[C@@]3(CCCc4cc(Cl)ccc43)COc3ccc(cc32)C(=O)NS1(=O)=O` (single isomer, unassigned) [Example 9] showed an IC50 ([1]; Homo sapiens, OPM-2, 16 h) of 223 nM and an IC50 [2] of 0.246 nM.

`C[C@@H]1[C@@H](C)CCC[C@H](CN2CCN3CCN(C)C[C@@H]3C2)[C@@H]2CC[C@H]2CN2C[C@@]3(CCCc4cc(Cl)ccc43)COc3ccc(cc32)C(=O)NS1(=O)=O` (single isomer, unassigned) [Example 1] gave an IC50 ([1]; 16 h) of 117 nM and an IC50 [2] of 0.225 nM.

With `C[C@@H]1[C@@H](C)CCC[C@@H]([C@@H](O)C(F)(F)F)[C@@H]2CC[C@H]2CN2C[C@@]3(CCCc4cc(Cl)ccc43)COc3ccc(cc32)C(=O)NS1(=O)=O` (single isomer, unassigned) [Example 47] the IC50 ([1]; 16 h) was 756 nM and the IC50 [2] was 1.61 nM.

Molecule `C[C@@H]1[C@@H](C)CCC[C@H]([C@H](O)C2CCN(C)CC2)[C@@H]2CC[C@H]2CN2C[C@@]3(CCCc4cc(Cl)ccc43)COc3ccc(cc32)C(=O)NS1(=O)=O` (single isomer, unassigned) [Example 68] has an IC50 ([1]; 16 h) of 1670 nM and an IC50 [2] of 0.938 nM.

`COCCN1CCN(C[C@H]2CCC[C@H](C)[C@@H](C)S(=O)(=O)NC(=O)c3ccc4c(c3)N(C[C@@H]3CC[C@@H]23)C[C@@]2(CCCc3cc(Cl)ccc32)CO4)CC1=O` (single isomer, unassigned) [Example 7] was tested, and the IC50 ([1]; 16 h) was 180 nM and the IC50 [2] was 0.181 nM.

With `C[C@@H]1[C@@H](C)CCC[C@H](CN2CCN3CCN(S(C)(=O)=O)C[C@@H]3C2)[C@@H]2CC[C@H]2CN2C[C@@]3(CCCc4cc(Cl)ccc43)COc3ccc(cc32)C(=O)NS1(=O)=O` (stereo in doubt) [Example 30] the IC50 ([1]; 16 h) was 370 nM and the IC50 [2] was 0.516 nM.

Work on `C[C@@H]1CS(=O)(=O)NC(=O)c2ccc3c(c2)N(C[C@@H]2CC[C@H]2[C@@H](CO)CC[C@@H]1C)C[C@@]1(CCCc2cc(Cl)ccc21)CO3` (single isomer, unassigned) [Example 43] yielded an IC50 ([1]; 16 h) of 599 nM and an IC50 [2] of 0.268 nM.

`CC[C@@H](O)[C@H]1/C=C/C[C@H](C)[C@@H](C)S(=O)(=O)NC(=O)c2ccc3c(c2)N(C[C@@H]2CC[C@H]21)C[C@@]1(CCCc2cc(Cl)ccc21)CO3` (single isomer, unassigned) [Example 54] showed an IC50 ([1]; 16 h) of 989 nM and an IC50 [2] of 0.624 nM.

`CC(=O)N1CCN2CCN(C[C@H]3CCC[C@H](C)[C@@H](C)S(=O)(=O)NC(=O)c4ccc5c(c4)N(C[C@@H]4CC[C@@H]34)C[C@@]3(CCCc4cc(Cl)ccc43)CO5)C[C@H]2C1` (single isomer, unassigned) [Example 4] gave an IC50 ([1]; 16 h) of 172 nM and an IC50 [2] of 0.212 nM.

Molecule `C[C@@H]1[C@@H](C)CCC[C@H](CN2CCN3CCN(S(C)(=O)=O)C[C@@H]3C2)[C@@H]2CC[C@H]2CN2C[C@@]3(CCCc4cc(Cl)ccc43)COc3ccc(cc32)C(=O)NS1(=O)=O` (stereo in doubt) [Example 20] has an IC50 ([1]; Homo sapiens, OPM-2, 16 h) of 304 nM and an IC50 [2] of 1.16 nM.

`C[C@@H]1[C@@H](C)C/C=C/[C@H](CO)[C@@H]2CC[C@H]2CN2C[C@@]3(CCCc4cc(Cl)ccc43)COc3ccc(cc32)C(=O)NS1(=O)=O` (single isomer, unassigned) [Example 26] gave an IC50 ([1]; 16 h) of 342 nM and an IC50 [2] of 0.336 nM.

`COCCNC(=O)[C@@H]1CCC[C@H](C)[C@@H](C)S(=O)(=O)NC(=O)c2ccc3c(c2)N(C[C@@H]2CC[C@H]21)C[C@@]1(CCCc2cc(Cl)ccc21)CO3` (single isomer, unassigned) [Example 57] gave an IC50 ([1]; Homo sapiens, OPM-2, 16 h) of 1170 nM and an IC50 [2] of 0.604 nM.

Molecule `C[C@@H]1[C@@H](C)CCC[C@H](C)[C@@H]2CC[C@H]2CN2C[C@@]3(CCCc4cc(Cl)ccc43)COc3ccc(cc32)C(=O)NS1(=O)=O` (single isomer, unassigned) [Example 89] has an IC50 ([1]; 16 h) of over 33300 nM and an IC50 [2] of 14.2 nM.

For `C[C@@H]1[C@@H](C)CCC[C@H]([C@@H](C)O)[C@@H]2CC[C@H]2CN2C[C@@]3(CCCc4cc(Cl)ccc43)COc3ccc(cc32)C(=O)NS1(=O)=O` (single isomer, unassigned) [Example 58], the IC50 ([1]; 16 h) was 1230 nM and the IC50 [2] was 0.995 nM.

Work on `C[C@@H]1[C@@H](C)CCC[C@H](C)[C@@H]2CC[C@H]2CN2C[C@@]3(CCCc4cc(Cl)ccc43)COc3ccc(cc32)C(=O)NS1(=O)=O` (single isomer, unassigned) [Example 73] yielded an IC50 ([1]; 16 h) of 17000 nM and an IC50 [2] of 7.41 nM.
